Measured values reported in PubChem BioAssay (NCI).
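Protocol summary: plate cells (96-well), add compound at 5 concentrations, incubate 48 h, interpolate endpoints linearly. TGI is the concentration that stops growth completely.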

Legend:
Assay in all cases: NCI anticancer screen, dose series, 48 h
DU-145 prostate = system: DU-145 prostate
HCC-2998 colon = system: HCC-2998 colon
HT29 colon = system: HT29 colon
IGROV1 ovarian = system: IGROV1 ovarian
NCI-H522 lung = system: NCI-H522 lung
SR leukemia = system: SR leukemia
TK-10 renal = system: TK-10 renal
UACC-257 melanoma = system: UACC-257 melanoma

Row | Structure (SMILES) | TGI (DU-145 prostate) [µM] | TGI (HCC-2998 colon) [µM] | TGI (HT29 colon) [µM] | TGI (IGROV1 ovarian) [µM] | TGI (NCI-H522 lung) [µM] | TGI (SR leukemia) [µM] | TGI (TK-10 renal) [µM] | TGI (UACC-257 melanoma) [µM]
1 | COc1cccc2c1OC1(C=C2)Oc2ccccc2C(=O)N1C (stereo unspecified) | > 100 | 77.8 | > 100 | > 100 | > 100 | 54.2 | > 100 | > 100
2 | N#CC12C(=O)N=C(N)C1(C#N)C(c1ccco1)NC1=C2CCCC1 (stereo unspecified) | > 100 | > 100 | > 100 | > 100 | > 100 | > 100 | > 100 | > 100
3 | O=S(=O)(CCn1c(Sc2ccccc2)c(Sc2ccccc2)c2ccccc21)c1ccccc1 | > 100 | > 100 | > 100 | > 100 | > 100 | > 100 | > 100 | –
4 | COc1cc(NS(C)(=O)=O)ccc1Nc1cc(C)[nH]c2ccc3nccc3c12 | > 100 | – | > 100 | > 100 | > 100 | – | > 100 | > 100
5 | O=C(/C=C/c1ccc2c(c1)OCO2)CC(=O)C(=O)c1c[nH]c2ccccc12 | > 100 | 48.4 | > 100 | > 100 | > 100 | > 100 | > 100 | > 100
6 | O=C(O)/C=C(/C(=O)O)C12CCN3CC4=CCOC5CC(=O)NC1C5C4CC32 (stereo unspecified) | > 100 | – | > 100 | > 100 | > 100 | > 100 | > 100 | > 100
7 | COP(=O)(/C=C/c1cc(C(=O)OCc2ccccc2)n(S(=O)(=O)c2ccccc2)c1)OC | > 100 | > 100 | > 100 | > 100 | > 100 | – | > 100 | > 100
8 | O=C1c2ccccc2-c2c1c(-c1ccc(F)cc1)nc1ccc3ccccc3c21 | > 100 | > 100 | > 100 | – | – | – | – | > 100
9 | CCOC(=O)C1=C(C)C2C=C(c3cccs3)CC(c3ccc(Cl)cc3)=C2OC1=O (stereo unspecified) | > 100 | 77.3 | > 100 | > 100 | > 100 | 50 | > 100 | > 100
10 | C=CCSc1nnc2cc(CN3CCCC3)c(-c3ccc(Cl)cc3)nn12 | 43.7 | – | 32.5 | 44.3 | 42.6 | > 100 | 43.7 | 32.3
11 | CC1(C)CCCC2OC2CCC(C)(C)C1=O (stereo unspecified) | > 100 | > 100 | > 100 | > 100 | > 100 | > 100 | > 100 | > 100
12 | CCC1(CC)C(=O)NN(C(=O)c2ccccc2)C1=O | > 100 | > 100 | > 100 | > 100 | > 100 | > 100 | > 100 | > 100
13 | O=c1c2sc(=S)n(-c3ccc(F)cc3)c2ncn1/N=C/c1ccc(F)cc1F | 39.4 | > 100 | > 100 | 89.1 | > 100 | > 100 | 40 | > 100
14 | [O-][n+]1ccccc1Sc1nc(Sc2cccc[n+]2[O-])nc(Sc2cccc[n+]2[O-])n1 | 10.2 | 2.89 | 2.61 | 3.03 | 2.23 | 2.97 | 3.82 | 6.23
15 | N=C(N)SCc1ccc2c(c1)Sc1ccccc1O2 | 28.7 | 6.89 | 8.54 | 11.9 | 3.09 | > 31.6 | 14.1 | 14.2
16 | Cc1cc(N(CCOS(C)(=O)=O)CCOS(C)(=O)=O)ccc1C=O | – | 24.6 | > 100 | 39.2 | 0.379 | – | > 100 | 48
17 | CCCCC(C(=O)NCCNC(=O)CCC(=O)N(C)O)C(=O)NCCNC(=O)CCC(=O)N(C)O | > 100 | > 100 | > 100 | > 100 | > 100 | > 100 | > 100 | > 100
18 | COc1cccc2c(=O)oc(-c3ccc(C(C)(C)C)cc3)nc12 | > 100 | 33.5 | > 100 | > 100 | 89.6 | 63.1 | > 100 | > 100
19 | CCN(CC)/C(SCc1ccccc1)=C(\C(Cl)=C(Cl)Cl)[N+](=O)[O-] | 39.2 | 47.7 | 81.7 | 33.8 | 47.2 | 73.6 | 33.3 | 31.8
20 | CN(C)c1ccc(C(=N/N=C2\C(=O)Nc3ccccc32)c2ccc(N(C)C)cc2)cc1 | 17.5 | 17.5 | 4.45 | 9.07 | 0.649 | 26.8 | 28.2 | > 83.8
21 | CCCCCCOc1ccc(C(=O)NOC)cc1 | > 100 | > 100 | > 100 | > 100 | > 100 | > 100 | > 100 | > 100
22 | COC(=O)C1CCC(=O)N1C(c1ccc(OC)cc1)c1ccc2c(c1)OCO2 (stereo unspecified) | > 100 | > 100 | > 100 | > 100 | > 100 | > 100 | > 100 | > 100
23 | COc1ccc2c(c1)/C(=C\c1c(Cl)nc3sc(C)cn13)C(=O)N2 | 18.2 | 18.3 | 12.7 | 16.7 | 14.4 | 15.6 | 19.1 | 21
24 | O=[N+]([O-])C(/C=C(\Cl)n1nnc2ccccc21)=C(/Cl)n1nnc2ccccc21 | > 100 | > 100 | > 100 | > 100 | > 100 | > 100 | > 100 | > 100
25 | CCOC(=O)Cn1c(=O)c2nc(SC)sc2n(-c2ccccc2)c1=O | – | > 100 | > 100 | > 100 | – | > 100 | > 100 | > 100
26 | O=C(O)CCC(=O)OC1N=C(c2ccccc2Cl)c2cc([N+](=O)[O-])ccc2NC1=O (stereo unspecified) | > 100 | > 100 | > 100 | > 100 | > 100 | – | > 100 | > 100

Row | Structure (SMILES) | TGI (DU-145 prostate) [µM] | TGI (HCC-2998 colon) [µM] | TGI (HT29 colon) [µM] | TGI (IGROV1 ovarian) [µM] | TGI (NCI-H522 lung) [µM] | TGI (SR leukemia) [µM] | TGI (TK-10 renal) [µM] | TGI (UACC-257 melanoma) [µM]
27 | Cc1cc(C(=O)CCCCOc2ccc(C3=NCCO3)cc2)c(C)n1C | 79.8 | – | > 100 | > 100 | > 100 | 54.9 | > 100 | > 100
28 | CC(=N/N=C/c1ccccn1)/C(C)=N/N=C(C)/C(C)=N/N=C(C)/C(C)=N/N=C(C)/C(C)=N\N=C\c1ccccn1 | > 100 | > 100 | > 100 | > 100 | > 100 | > 100 | > 100 | > 100
29 | O=C1NCC2(CCN(CCCC3(c4ccc(F)cc4)OCCO3)CC2)N1c1ccccc1 | > 100 | > 100 | > 100 | > 100 | > 100 | > 100 | > 100 | > 100
30 | CC1CCC(C(=O)O)(C(Br)C(=O)O)CC1 (stereo unspecified) | > 100 | – | > 100 | > 100 | – | > 100 | > 100 | > 100
31 | Oc1ccc([I+]c2ccccc2)cc1O | > 100 | 64.2 | > 100 | > 100 | > 100 | > 100 | > 100 | > 100
32 | CN(C)c1ccc(S(=O)Nc2ccccc2)cc1 (stereo unspecified) | > 100 | > 100 | > 100 | > 100 | > 100 | > 100 | > 100 | 92.9
33 | CCOC(=O)c1cc2nc3ccccc3c(=O)n2c2ccccc12 | > 10 | > 10 | > 10 | > 10 | > 10 | – | > 10 | > 10
34 | CN1CSC(=S)N(c2c3ccccc3nc3ccc(Br)cc23)C1 | 22 | 8.3 | 23.1 | 25.1 | 12.6 | 12.6 | 21.9 | 24.8
35 | Cc1ccc(S(=O)(=O)N/N=C/C2(c3ccccc3)c3ccccc3-c3ccccc32)cc1 | 27.1 | 26.3 | 26.3 | 23.5 | 28.6 | > 100 | 98.5 | 31.4
36 | COc1cc(/C=C/C(=O)CC(=O)/C=C/c2ccc(OC(=O)CCCCC3CCSS3)c(OC)c2)ccc1OC(=O)CCCCC1CCSS1 (stereo unspecified) | > 100 | – | > 100 | > 100 | > 100 | – | > 100 | > 100
37 | O=[N+]([O-])c1ccc(Oc2c(Cl)cc(S(=O)(=O)/N=C(\NO)Nc3ccc(Cl)cc3)cc2Cl)cc1 | 29.3 | 13.1 | 27.9 | 29.8 | 12.7 | 17.2 | 23.2 | 22.6
38 | O=c1[nH]c(Nc2nc3ccccc3[nH]2)nc(O)c1-c1ccccc1 | > 100 | > 100 | > 100 | > 100 | > 100 | > 100 | > 100 | > 100
39 | CC1=NN(c2cccc(Cl)c2)C2(C1=C/C=C/c1ccccc1)C(Cl)C(=O)N2c1nc2ccccc2s1 (stereo unspecified) | > 38.2 | 86.8 | > 100 | > 100 | 47.4 | 9.54 | > 100 | > 100
40 | CC1=C[C@@H]2Cc3nc4cc(Cl)ccc4c(N)c3[C@H](C1)C2 | 27.3 | – | 13.2 | 8.14 | – | – | 19.5 | 4.9
41 | Cc1nc(N)c(N2CCN([N+](=O)[O-])CC2)c(=O)[nH]1 | > 100 | > 100 | > 100 | – | > 100 | > 100 | > 100 | > 100
42 | NS(=O)(=O)c1cc2c(cc1Cl)NC(CCC(=O)O)=NS2(=O)=O | > 100 | – | > 100 | > 100 | > 100 | – | > 100 | > 100
43 | COc1ccc(NC(=O)CC(=O)N2N=C(N3c4ccccc4Sc4ccccc43)CC2c2ccccc2)cc1 (stereo unspecified) | > 100 | > 100 | > 100 | > 100 | > 100 | > 100 | > 100 | > 100
44 | CCN(CC)CCN(C(=Nc1ccccc1)N1CCOCC1)c1ccccc1 | > 100 | > 100 | > 100 | > 100 | > 100 | > 100 | > 100 | > 100
45 | Cc1cccc2c1CC1(C2)Cc2c(C)cccc2C1=O (stereo unspecified) | 77.3 | 65.1 | 97.2 | > 100 | 59.3 | 37.4 | 92.1 | 63.5
46 | CN(C)C1(N(C)C)Oc2c(c(=O)n(C)c(=O)n2C)C(c2ccc(Br)cc2)C1(F)F (stereo unspecified) | > 100 | > 100 | – | – | – | – | > 100 | > 100
47 | O=C(Nc1nccs1)c1c(O)nc2sccn2c1=O | > 10 | > 10 | > 10 | > 10 | > 10 | > 10 | > 10 | –
48 | COc1ccc(-c2nc(SCC(=O)N/N=C/c3ccc(N(C)C)cc3)[nH]c2-c2ccc(OC)cc2)cc1 | > 100 | > 100 | > 100 | > 100 | > 100 | – | > 100 | > 100
49 | COc1ccc(C2=N/C(=C\c3ccccc3)C(=O)O2)cc1 | – | > 100 | > 100 | > 100 | – | 57.5 | > 100 | > 100
50 | CC1OC(OC2C(OC(=O)[C@]34CCC(C)(C)C[C@H]3C3=CC[C@@H]5[C@@]6(C)CC[C@H](OC7OC(C(=O)O)C(O)C(O)C7O)C(C)(C)[C@@H]6CC[C@@]5(C)[C@]3(C)C[C@H]4O)OCC(O)C2O)C(O)C(OC2OCC(O)(CO)C2O)C1OC1OCC(O)C(O)C1O (stereo partly specified) | 25.8 | 3.32 | 12.1 | 33.3 | 16.5 | 18.9 | – | 26.6
51 | c1c[nH]c(-c2ccc(-c3ccc[nH]3)c3nsnc23)c1 | 98.3 | > 100 | > 37.8 | > 100 | > 100 | – | > 100 | > 100
